For experiment [1], the target named is T1, HCV NS5B polymerase 1a-H77 (Hepatitis C virus genotype 1a, UniProt P27958).
T1 construct: six-histidine tag; made in house; host or cells: E. coli
The experiment in a line: biochemical. On the set-up: species or system HCV genotype 1a. In a few lines:
(§1)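 Recombinant NS5B (residues 1–570, His-tagged, E. coli-expressed) copied 5 nM of a 2.1 kb HCV 1b negative-strand 3′-end RNA template with 20 μM CTP, 20 μM ATP and 0.284 μM [3H]UTP for 3 h at 30 °C. Spermine-precipitated RNA was filter-captured and counted, and IC50 was fitted by nonlinear regression.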

Experiment [2] has as its target T2, HCV NS5B polymerase 1a-H77-C316Y (Hepatitis C virus genotype 1a, UniProt P27958, C2736Y).
T2 construct: six-histidine tag; made in house; host or cells: E. coli
The experiment in a line: biochemical. On the set-up: species or system HCV genotype 1a. A digest of the protocol:
as §1

Experiment [3] concerns HCV NS5B polymerase 1a-H77-C316Y. The experiment in a line: biochemical. The note with it: ratio of enzyme IC50s, 1a H77-C316Y / 1a H77. Further details: species or system HCV genotype 1a. In a few lines: as §1
Experiment [4] deals with T3, HCV NS5B polymerase 1b BK strain (Hepatitis C virus genotype 1b, UniProt P26663).
T3 construct: six-histidine tag; made in house; host or cells: E. coli
T3 sequence (P26663 2420-2989): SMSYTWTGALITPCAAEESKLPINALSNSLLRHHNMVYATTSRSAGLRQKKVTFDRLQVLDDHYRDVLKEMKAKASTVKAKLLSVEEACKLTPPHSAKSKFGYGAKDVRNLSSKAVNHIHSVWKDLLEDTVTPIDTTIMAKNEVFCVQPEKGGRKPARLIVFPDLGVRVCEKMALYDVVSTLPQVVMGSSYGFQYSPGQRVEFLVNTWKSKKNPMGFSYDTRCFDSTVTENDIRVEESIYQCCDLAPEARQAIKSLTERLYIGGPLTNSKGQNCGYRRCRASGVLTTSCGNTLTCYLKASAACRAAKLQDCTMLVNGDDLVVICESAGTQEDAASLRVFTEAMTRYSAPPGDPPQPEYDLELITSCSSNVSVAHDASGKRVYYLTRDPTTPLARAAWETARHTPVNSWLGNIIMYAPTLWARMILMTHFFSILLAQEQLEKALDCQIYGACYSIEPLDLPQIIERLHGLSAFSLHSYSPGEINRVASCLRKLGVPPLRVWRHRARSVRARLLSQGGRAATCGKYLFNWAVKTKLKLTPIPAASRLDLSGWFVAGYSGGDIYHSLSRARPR
The experiment in a line: HCV NS5B polymerase enzymatic inhibition assay, strain 1b BK. The note with it: enzyme, strain 1b BK; read-out: HCV Polymerase Strain 1b BK IC50. Type of experiment: biochemical. A digest of the protocol:
as §1

Experiment [5] relates to HCV 1a-H77 subgenomic replicon. The experiment in a line: microbe, parasite or virus in culture. Type of experiment: cell-based, HCV genotype 1a. Conditions: Hepatitis C virus, stable replicon.
Experiment [6] relates to HCV 1b-BB7 subgenomic replicon. The experiment in a line: microbe, parasite or virus in culture. The note with it: Hepatitis C virus, stable replicon. Format: cell-based, HCV genotype 1b. For orientation: A replicon is a self-replicating genome or part of one, used to study replication in cells.
In experiment [7] the test system is chimeric replicon with 2a-J6CF-derived NS5B. The experiment in a line: microbe, parasite or virus in culture. Conditions: Hepatitis C virus, read-out: 2a chimera 5% FBS EC50. Format: cell-based, HCV genotype 2a.
Experiment [8] deals with chimeric replicon with genotype 2b NS5B. The experiment in a line: microbe, parasite or virus in culture. Type of experiment: cell-based, HCV genotype 2b. The note with it: Hepatitis C virus, read-out: 2b chimera 5% FBS EC50.
Experiment [9] concerns chimeric replicon with genotype 3a NS5B. The experiment in a line: microbe, parasite or virus in culture. Type of experiment: cell-based, HCV genotype 3a. The note with it: Hepatitis C virus, read-out: 3a chimera 5% FBS EC50.
Experiment [10] relates to chimeric replicon with genotype 4a NS5B. The experiment in a line: microbe, parasite or virus in culture. Format: cell-based, HCV genotype 4a. The note with it: Hepatitis C virus, read-out: 4a chimera 5% FBS EC50.
In experiment [11] the test system is HCV 1a-H77 transient subgenomic replicon in Huh-7 derived cell line. The experiment in a line: microbe, parasite or virus in culture. Format: cell-based, HCV genotype 1a. The note with it: Hepatitis C virus, Huh-7; transient replicon, 5% FBS; read-out: Transient Replicon 1a H77 5% FBS EC50. As for the experimental part: (§2) In addition to the stable replicon inhibition assays, transient replicon assays were performed. Transient replicons are identical to the 1a-H77 and 1a-H77-C316Y constructs, except they lack the Neo gene, making it impossible to establish stable cell lines. A T7 Megascript RNA synthesis kit (Ambion) was used to transcribe the HCV subgenomic RNA. The HCV RNA was then precipitated with lithium chloride according to manufacturer's instructions. The HCV subgenomic replicon RNA was transfected via electroporation into a Huh-7 derived cell line as described (Middleton T, et al. J. Virological Methods 2007; 145(2): 137-145). Transfected cells were diluted and plated in 96 well plates at 5×10^3 cells per well in DMEM. Four hours post-transfection, the wells from one plate were harvested for luciferase measurement. This plate provides a measure of the amount of translatable input RNA, and therefore transfection efficiency. To the wells of the remaining plates, a 3-fold dilution series of test compounds was added in DMSO (0.5% DMSO final concentration), and plates were incubated at 37° C., 5% CO2 in a humidified incubator for 4 days. After this period, the media was removed and the plates were washed with 100 μL phosphate-buffered saline per well. For the luciferase assay, 30 μL of Passive Lysis buffer (Promega) was added to each well, and then the plates were incubated for 15 minutes with rocking to lyse the cells. Luciferin solution (100 μL, Promega) was added to each well, and luciferase activity was measured with a Victor II luminometer (Perkin-Elmer). The EC50 values were calculated using GraphPad Prism 4 software.

Experiment [12] concerns HCV 1a-H77-C316Y transient subgenomic replicon in Huh-7 derived cell line. The experiment in a line: microbe, parasite or virus in culture. Type of experiment: cell-based, HCV genotype 1a. The note with it: for pEC50: Hepatitis C virus, Huh-7, read-out: Transient Replicon 1a H77-C316Y 5% FBS EC50; for Transient Replicon Fold Resistance C316Y/1a: ratio of transient replicon EC50s, C316Y / 1a H77. The procedure: as §2

The mark [13] stands for this setting: enzyme, strain 1a H77, read-out: HCV Polymerase Strain 1a H77 IC50.
The mark [14] stands for this setting: 5% FBS, absence of human plasma, read-out: Stable Replicon 1a H77 5% FBS EC50.
Where [15] appears, read: strain 1a H77, 5% FBS + 40% human plasma, read-out: 1a H77 5% FBS + 40% Human Plasma EC50.
The mark [16] stands for this setting: strain 1a H77, 5% FBS, no human plasma, read-out: 1a H77 5% FBS EC50.
Where [17] appears, read: strain 1a H77, 5% FBS, read-out: 1a H77 5% FBS EC50.
[18] abbreviates: strain 1b BB7, 5% FBS + 40% human plasma, read-out: 1b BB7 5% FBS + 40% Human Plasma EC50.
[19] abbreviates: strain 1b BB7, 5% FBS, no human plasma, read-out: 1b BB7 5% FBS EC50.
Setting [20] is: strain 1b BB7, 5% FBS, read-out: 1b BB7 5% FBS EC50.

From patent US20160355530A1, “HEPATITIS C INHIBITORS AND USES THEREOF” (AbbVie Inc., priority 2010, published 2016) come the findings set out here.

pEC50, pIC50: −log10 of the molar value. Like-named read-outs stand apart in the source and are kept apart here.

T1 sequence (P27958 2421-2990): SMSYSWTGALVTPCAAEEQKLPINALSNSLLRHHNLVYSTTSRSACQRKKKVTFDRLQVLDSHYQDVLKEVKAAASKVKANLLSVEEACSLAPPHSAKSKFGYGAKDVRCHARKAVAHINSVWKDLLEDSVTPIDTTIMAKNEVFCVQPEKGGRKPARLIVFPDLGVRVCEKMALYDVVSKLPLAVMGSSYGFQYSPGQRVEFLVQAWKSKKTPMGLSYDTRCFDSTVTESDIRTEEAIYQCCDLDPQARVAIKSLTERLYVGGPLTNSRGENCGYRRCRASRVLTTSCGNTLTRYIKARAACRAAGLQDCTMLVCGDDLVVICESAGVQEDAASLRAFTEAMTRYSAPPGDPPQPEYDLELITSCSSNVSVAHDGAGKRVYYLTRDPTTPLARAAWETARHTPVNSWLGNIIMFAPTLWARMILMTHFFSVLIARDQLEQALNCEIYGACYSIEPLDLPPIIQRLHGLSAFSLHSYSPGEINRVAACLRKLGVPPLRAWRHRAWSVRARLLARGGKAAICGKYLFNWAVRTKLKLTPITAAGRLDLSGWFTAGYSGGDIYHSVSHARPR
T2 sequence (P27958 2421-2990 C2736Y): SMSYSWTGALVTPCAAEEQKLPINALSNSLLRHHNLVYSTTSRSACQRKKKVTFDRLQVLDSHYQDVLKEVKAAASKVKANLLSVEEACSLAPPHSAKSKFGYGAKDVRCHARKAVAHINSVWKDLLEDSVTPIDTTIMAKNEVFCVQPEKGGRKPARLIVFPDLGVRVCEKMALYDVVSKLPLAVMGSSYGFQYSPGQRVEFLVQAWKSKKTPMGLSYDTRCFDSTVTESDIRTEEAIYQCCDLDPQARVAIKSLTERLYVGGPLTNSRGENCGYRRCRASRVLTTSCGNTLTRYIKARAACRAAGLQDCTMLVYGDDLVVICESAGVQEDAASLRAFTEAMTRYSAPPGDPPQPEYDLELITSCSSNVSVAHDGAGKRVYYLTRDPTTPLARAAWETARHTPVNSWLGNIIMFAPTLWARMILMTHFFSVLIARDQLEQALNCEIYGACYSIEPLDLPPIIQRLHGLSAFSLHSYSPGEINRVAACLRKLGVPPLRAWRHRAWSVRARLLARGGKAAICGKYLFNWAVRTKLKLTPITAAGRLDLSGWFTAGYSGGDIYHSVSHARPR

Consider `CS(=O)(=O)N(CCCCO)c1cc2oc(-c3ccc(F)cc3)c(C3=NOCCN3)c2cc1C1CC1` [Example 8, N-[5-cyclopropyl-3-(5,6-dihydro-4H-1,2,4-oxadiazin-3-yl)-2-(4-fluorophenyl)-1-benzofuran-6-yl]-N-(4-hydroxybutyl)methanesulfonamide], for which the values for the pIC50 in experiment [1] (setting [13]), in experiment [2] and in experiment [4] were 8.31, 7.51 and 7.57, respectively. Also, the “C316Y/1a Fold Resistance” value in experiment [3] came to 6 fold. Also, the pEC50 (in general, −log10 of the EC50, conventionally taken in molar units) was 8.20 in [5] (setting [14]); 7.44 in experiment [5] (setting [15]); 8.20 in experiment [5] (setting [16]); 8.20 in experiment [5] (setting [17]); 7.19 in experiment [6] (setting [18]); 8.00 in [6] (setting [19]). In addition, the pEC50 in [6] (setting [20]) was 8.00; in experiment [7], 6.93; in experiment [8] it was 7.00; in [9] it was 7.70; in experiment [10] it was 7.15; in experiment [11] it was 8.51. Moreover, the negative logarithm of the EC50 (pEC50) in experiment [12] is 7.50. In addition, the “Transient Replicon Fold Resistance C316Y/1a” value in [12] worked out at 10 fold.

For the compound `CS(=O)(=O)CCN(c1cc2oc(-c3ccc(F)cc3)c(C3=NOCCN3)c2cc1C1CC1)S(C)(=O)=O` [Example 9, N-[5-cyclopropyl-3-(5,6-dihydro-4H-1,2,4-oxadiazin-3-yl)-2-(4-fluorophenyl)-1-benzofuran-6-yl]-N-[2-(methylsulfonyl)ethyl]methanesulfonamide], the pIC50 (usually the negative decadic logarithm of the IC50, by convention in mol/L) in [1] (setting [13]) is 8.41; in experiment [2] it was 7.52; in experiment [4], 7.47. For the same compound, the “C316Y/1a Fold Resistance” value in experiment [3] came out at 8 fold. Further, the pEC50 was 8.08 in experiment [5] (setting [14]); 7.17 in [5] (setting [15]); 8.08 in [5] (setting [16]); 8.08 in experiment [5] (setting [17]); 6.86 in experiment [6] (setting [18]); 7.82 in experiment [6] (setting [19]). Besides, the pEC50 in [6] (setting [20]) was 7.82; in experiment [7], 6.53; in [8], 6.53; in experiment [9] it was 7.65; in experiment [10] it was 6.90; in experiment [11], 8.11. Also, the pEC50 in experiment [12] was 7.24. Further, in experiment [12], the “Transient Replicon Fold Resistance C316Y/1a” value was 7 fold.

For `CC1NC(c2c(-c3ccc(F)cc3)oc3cc(N(CCCCO)S(C)(=O)=O)c(C4CC4)cc23)=NO1` (stereo not drawn) [Example 11, N-[5-cyclopropyl-2-(4-fluorophenyl)-3-(5-methyl-4,5-dihydro-1,2,4-oxadiazol-3-yl)-1-benzofuran-6-yl]-N-(4-hydroxybutyl)methanesulfonamide], the pIC50 in experiment [1] (setting [13]) is 8.23; in experiment [2], 7.52; in experiment [4], 7.70. In addition, in [3], the “C316Y/1a Fold Resistance” value turned out to be 5 fold. Moreover, the pEC50 in experiment [5] (setting [14]) is 8.10; in experiment [5] (setting [15]), 7.00; in [5] (setting [16]), 8.10; in experiment [5] (setting [17]), 8.10; in experiment [6] (setting [18]) it was 6.70; in experiment [6] (setting [19]) it was 7.99. Further, the pEC50 was 7.99 in [6] (setting [20]); 7.07 in [7]; 7.01 in [8]; 7.78 in [9]; 7.61 in [10]; 8.52 in [11]. Besides, in experiment [12], the pEC50 was 7.46. Besides, the “Transient Replicon Fold Resistance C316Y/1a” value in experiment [12] was found to be 11 fold.

In the case of `CC1NC(c2c(-c3ccc(F)cc3)oc3cc(N(CCS(C)(=O)=O)S(C)(=O)=O)c(C4CC4)cc23)=NO1` (stereo not drawn) [Example 12, N-[5-cyclopropyl-2-(4-fluorophenyl)-3-(5-methyl-4,5-dihydro-1,2,4-oxadiazol-3-yl)-1-benzofuran-6-yl]-N-[2-(methylsulfonyl)ethyl]methanesulfonamide], the pIC50 in [1] (setting [13]) was 8.26; in experiment [2] it was 7.37; in [4] it was 7.77. Besides, in [3], the “C316Y/1a Fold Resistance” value is 8 fold. The pEC50 is 7.37 in experiment [5] (setting [14]); 7.30 in experiment [5] (setting [15]); 7.37 in experiment [5] (setting [16]); 7.37 in experiment [5] (setting [17]); 7.09 in experiment [6] (setting [18]); 7.96 in [6] (setting [19]). Further, the pEC50 in experiment [6] (setting [20]) is 7.96; in [7], 6.55; in [8], 6.66; in experiment [9] it was 7.59; in experiment [10], 7.13; in experiment [11] it was 7.11. For the same compound, in [12], the pEC50 is 5.91. For the same compound, the “Transient Replicon Fold Resistance C316Y/1a” value in [12] is reported as 16 fold.

As to `CC1NC(c2c(-c3ccc(F)cc3)oc3cc(N(CC[S+](C)[O-])S(C)(=O)=O)c(C4CC4)cc23)=NO1` (stereo not drawn) [Example 13, N-[5-cyclopropyl-2-(4-fluorophenyl)-3-(5-methyl-4,5-dihydro-1,2,4-oxadiazol-3-yl)-1-benzofuran-6-yl]-N-[2-(methylsulfinyl)ethyl]methanesulfonamide], the pIC50 is 8.13 in experiment [1] (setting [13]), 6.94 in experiment [2] and 7.59 in experiment [4]. Further, the “C316Y/1a Fold Resistance” value in [3] was determined as 16 fold. Moreover, the pEC50 is 7.83 in [5] (setting [14]); 6.79 in [5] (setting [15]); 7.83 in [5] (setting [16]); 7.83 in [5] (setting [17]); 6.84 in experiment [6] (setting [18]); 7.80 in [6] (setting [19]). Also, the pEC50 in [6] (setting [20]) was 7.80; in experiment [7] it was 6.42; in experiment [8] it was 6.51; in experiment [9] it was 7.38; in [10], 6.80; in experiment [11], 7.95. Further, the pEC50 in experiment [12] is 6.87. Besides, the “Transient Replicon Fold Resistance C316Y/1a” value in [12] is 12 fold.

`CS(=O)(=O)N(CCCS(N)(=O)=O)c1cc2oc(-c3ccc(F)cc3)c(C3=NOCN3)c2cc1C1CC1` [Example 15, 3-{[5-cyclopropyl-3-(4,5-dihydro-1,2,4-oxadiazol-3-yl)-2-(4-fluorophenyl)-1-benzofuran-6-yl](methylsulfonyl)amino}propane-1-sulfonamide]: the pIC50 in experiment [1] is 8.52; in experiment [2], 7.51; in experiment [4] it was 7.96. Besides, the “C316Y/1a Fold Resistance” value in [3] is on record as 10 fold. The pEC50 is 8.19 in experiment [5] (setting [14]); 5.75 in experiment [5] (setting [15]); 8.19 in [5] (setting [16]); 8.19 in [5] (setting [17]); 6.09 in experiment [6] (setting [18]); 8.00 in experiment [6] (setting [19]). Moreover, the pEC50 in [6] (setting [20]) is 8.00; in experiment [7], 6.89; in [8] it was 6.98; in experiment [9], 7.92; in [10], 6.85; in experiment [11], 8.09. For the same compound, the pEC50 in [12] was 6.78. For the same compound, the “Transient Replicon Fold Resistance C316Y/1a” value in experiment [12] amounted to 20 fold.
